Results on nine compounds are retold here after paper PMC9999251, “Pyrazole-based lamellarin O analogues: synthesis, biological evaluation and structure–activity relationships” (RSC Advances, 2023).

A word on the melting point: it is the temperature, or range, at which the solid turns liquid. As a reminder, the GI50 is the concentration at which growth is held to half of that of the control. The chromatographic logP is a lipophilicity value derived from retention on a column. A low value points to lower lipophilicity.

In one series the test system is HCT116 cells. The series is described as follows: Cell viability (MTT assay), HCT116. The following applies: Homo sapiens, HCT-116, 96 h treatment, read-out: GI50 ± SD HCT116. It is filed as cell-based. The method, then: (§1) SW480 (human colon adenocarcinoma, adherent, epithelial, ATCC number: CCL-228), HT29 (human colon adenocarcinoma, adherent, epithelial, ATCC number: HTB-38), and HCT116 (human colon adenocarcinoma, adherent, epithelial-like, ATCC number: CCL-247) cells were maintained in RPMI-1640 medium (Sigma-Aldrich). Medium was supplemented with heat-inactivated FBS (Biowest), penicillin–streptomycin (Sigma; with 10 000 units penicillin and 10 mg streptomycin per mL in 0.9% NaCl) and L-glutamine (Sigma; 200 mM solution). Cell cultures were cultivated at 37 °C, maintaining a humidified atmosphere consisting of 5% CO2. Gibco™ trypsin–EDTA (0.05%) was used for cell passage.
(§2) To evaluate cell viability, SW480, HT29, and HCT116 cells were harvested from culture flasks by trypsinization and seeded into 96-well plates in 4000 cells per well, 3000 cells per well and 4000 cells per well densities, respectively. After 24 h preincubation period, cells were treated in triplicates with nine different doses of each compound (6a–o and 7a–c) for 96 h. After treatment compound solutions were replaced with MTT solution (MTT reagent in PBS, […]) diluted in a 6 : 1 ratio in non-supplemented RPMI-1640 medium and were additionally incubated for 2 h. After incubation, the medium was removed, and formazan product was dissolved in DMSO. Optical densities were measured at 550 nm with TECAN Infinite® M200 PRO microplate reader using a reference wavelength of 690 nm to correct unspecific absorption. The quantity of viable cells was normalized to untreated controls. The GI50 values were calculated from dose–response curves.

A further series deals with HT29 cells. The series is described as follows: Cell viability (MTT assay), HT29. It is filed as cell-based. The following applies: Homo sapiens, HT-29, 96 h treatment, read-out: GI50 ± SD HT29. On the procedure:
as §1, §2

The test system of another series is SW480 cells. As to the kind of experiment: Cell viability (MTT assay), SW480. It is filed as cell-based. The following applies: Homo sapiens, SW480, 96 h, 96 h treatment, read-out: GI50 ± SD SW480. On the procedure: as §1, §2
Series [1] can be described thus: Determination of HPLC–log P. It is filed as physicochemical. The following applies: reversed-phase HPLC on apHera C18 column; methanol / 0.01 M phosphate buffer pH 7.4; mean ± SD. The method, then: HPLC–log P values were determined using Shimadzu HPLC system equipped with apHera C18 column (10 × 6 mm, 5 μm, Supelco, Bellefonte, PA, USA). Each sample was dissolved in the internal standard mixture, consisting of triphenylene (99.9%, Carl Roth) and toluene (≥98%, Sigma-Aldrich). Analysis was performed at 1.5 mL min^−1 flow rate in the linear gradient where mobile phase consisted of methanol and 0.01 M phosphate buffer (pH 7.4). The HPLC–log P values were calculated from the measured retention times using previously published equation.[57]

Structures are written as SMILES.

Regarding `O=C(Cn1nc(-c2ccccc2)c(-c2ccccc2)c1C(=O)O)c1ccccc1` [6a′, 1-(2-Oxo-2-phenylethyl)-3,4-diphenyl-1H-pyrazole-5-carboxylic acid], the melting point was in the range of 209 to 210 °C.

Consider `CCOC(=O)c1c(-c2ccccc2)c(-c2ccccc2)nn1CC(=O)c1ccc(OC)cc1` [Compound 6b, Ethyl 1-[2-(4-methoxyphenyl)-2-oxoethyl]-3,4-diphenyl-1H-pyrazole-5-carboxylate], for which the melting point was in the range of 144 to 145 °C. In addition, the GI50 with HCT116 cells is greater than 20 µM. Also, the 50% growth inhibitory concentration (GI50) with HT29 cells is greater than 20 µM. In the series with SW480 cells, the GI50 was greater than 20 µM. The compound further had a chromatographic logP in series [1] of 4.468 ± 0.006.

`CCOC(=O)c1c(-c2ccccc2)c(-c2ccccc2)nn1CC(=O)c1ccc(Cl)cc1` [Compound 6d, Ethyl 1-[2-(4-chlorophenyl)-2-oxoethyl]-3,4-diphenyl-1H-pyrazole-5-carboxylate] showed a melting point of 135 to 136 °C. Besides, in the series with HCT116 cells, the concentration for 50% growth inhibition (GI50) is 14.5 ± 3.92 µM. In addition, in the series with HT29 cells, the GI50 is greater than 20 µM. Also, in the series with SW480 cells, the GI50 was greater than 20 µM. Besides, the chromatographic logP in series [1] stood at 4.711 ± 0.006.

`CCOC(=O)c1c(-c2ccccc2)c(-c2ccccc2)nn1CC(=O)c1ccc(O)cc1` [Compound 6e, Ethyl 1-[2-(4-hydroxyphenyl)-2-oxoethyl]-3,4-diphenyl-1H-pyrazole-5-carboxylate]: the melting point fell in the range of 143 to 144 °C. The GI50 with HCT116 cells was greater than 20 µM. The GI50 with HT29 cells was greater than 20 µM. In the series on SW480 cells, the GI50 was greater than 20 µM. This compound also yielded a chromatographic logP in series [1] of 3.803 ± 0.012.

Compound `CCOC(=O)c1c(-c2ccc(OC)cc2)c(-c2ccc(OC)cc2)nn1CC(=O)c1ccc(OC)cc1` [Compound 6g, Ethyl 3,4-bis(4-methoxyphenyl)-1-[2-(4-methoxyphenyl)-2-oxoethyl]-1H-pyrazole-5-carboxylate] yielded a melting point of 67 to 68 °C. The GI50 in the series with HCT116 cells was greater than 20 µM. In addition, in the series with HT29 cells, the GI50 was greater than 20 µM. The concentration for 50% growth inhibition (GI50) with SW480 cells is greater than 20 µM. The same compound displayed a chromatographic logP in series [1] of 4.531 ± 0.004.

The compound `CCOC(=O)c1c(-c2ccc(OC)cc2)c(-c2ccc(OC)cc2)nn1CC(=O)c1ccc(Cl)cc1` [Compound 6i, Ethyl 1-[2-(4-chlorophenyl)-2-oxoethyl]-3,4-bis(4-methoxy-phenyl)-1H-pyrazole-5-carboxylate] gave a melting point of 132 to 133 °C. In the series on HCT116 cells, the GI50 is greater than 20 µM. The GI50 in the series with HT29 cells is greater than 20 µM. For the same compound, in the series on SW480 cells, the GI50 was greater than 20 µM. In series [1], this compound displayed a chromatographic logP of 4.784 ± 0.005.

Consider `CCOC(=O)c1c(-c2ccccc2)c(-c2ccc(F)cc2)nn1CC(=O)c1ccccc1` [Compound 6j, Ethyl 3-(4-fluorophenyl)-1-(2-oxo-2-phenylethyl)-4-phenyl-1H-pyrazole-5-carboxylate], for which the melting point was in the range of 135 to 136 °C. Further, the GI50 in the series with HCT116 cells is 3.75 ± 1.06 µM. Moreover, in the series on HT29 cells, the GI50 came to 13.8 ± 0.861 µM. The GI50 with SW480 cells worked out at 9.24 ± 2.15 µM. For the same compound, in series [1], the chromatographic logP was found to be 4.49 ± 0.006.

Turning to `CCOC(=O)c1c(-c2ccc(F)cc2)c(-c2ccc(F)cc2)nn1CC(=O)c1ccccc1` [Compound 6k, Ethyl 3,4-bis(4-fluorophenyl)-1-(2-oxo-2-phenylethyl)-1H-pyrazole-5-carboxylate], the melting point was 103 to 104 °C. For the same compound, in the series on HCT116 cells, the GI50 was found to be 3.39 ± 0.62 µM. Also, in the series on HT29 cells, the GI50 worked out at 11.1 ± 2.62 µM. In addition, the 50% growth inhibitory concentration (GI50) with SW480 cells came to 7.81 ± 2.02 µM. The compound further yielded a chromatographic logP in series [1] of 4.546 ± 0.005.

Consider `COC(=O)c1c(-c2ccccc2)c(-c2ccccc2)nn1CC(=O)c1ccc(F)cc1` [Compound 7c, Methyl 1-[2-(4-fluorophenyl)-2-oxoethyl]-3,4-diphenyl-1H-pyrazole-5-carboxylate], for which the melting point is 114 to 115 °C. For the same compound, in the series with HCT116 cells, the 50% growth inhibitory concentration (GI50) is 2.7 ± 0.689 µM. The GI50 with HT29 cells was determined as 9.72 ± 3.71 µM. In addition, in series [1], the chromatographic logP came to 4.327 ± 0.007.
